# In US11382956B2, “Amylin analogues” (Zealand Pharma A/S, priority 2016, dated 2022):
# Numbered stars: 1 amine (or outer) side, 2 acyl side, 3 side chain; on linkers, the order of the positions; unused ones are H or OH. Bridge positions count the residues as written; N and C are the ends. Square brackets hold non-standard residues; d marks the D form. Peptide text beside a SMILES is read from it. * marks the point of attachment. C20 diacid = O=C(O)CCCCCCCCCCCCCCCCCCC(=O)*; γGlu = O=C(O)[C@H](CCC(=O)[*:2])N[*:1]; Hyp = O=C(O)[C@@H]1C[C@@H](O)CN1; NMeI = CC[C@H](C)[C@H](NC)C(=O)O; Aad = N[C@@H](CCCC(=O)O)C(=O)O; hLys = NCCCCC[C@H](N)C(=O)O; Dab = NCC[C@H](N)C(=O)O; Dap = NC[C@H](N)C(=O)O; Sar = CNCC(=O)O
# Assays:
# [1] = biological target: T1, recombinant human amylin 3 receptor (hAMYR3) (Homo sapiens, UniProt O60896+P30988); assay: hAMYR3 cAMP assay (AlphaScreen) in 1321N1 cells; format: cell-based; conditions: cAMP formation, 45 min stimulation
# T1 construct: host or cells: human astrocytoma cell line 1321N1
# T1 sequence (P30988 25-474): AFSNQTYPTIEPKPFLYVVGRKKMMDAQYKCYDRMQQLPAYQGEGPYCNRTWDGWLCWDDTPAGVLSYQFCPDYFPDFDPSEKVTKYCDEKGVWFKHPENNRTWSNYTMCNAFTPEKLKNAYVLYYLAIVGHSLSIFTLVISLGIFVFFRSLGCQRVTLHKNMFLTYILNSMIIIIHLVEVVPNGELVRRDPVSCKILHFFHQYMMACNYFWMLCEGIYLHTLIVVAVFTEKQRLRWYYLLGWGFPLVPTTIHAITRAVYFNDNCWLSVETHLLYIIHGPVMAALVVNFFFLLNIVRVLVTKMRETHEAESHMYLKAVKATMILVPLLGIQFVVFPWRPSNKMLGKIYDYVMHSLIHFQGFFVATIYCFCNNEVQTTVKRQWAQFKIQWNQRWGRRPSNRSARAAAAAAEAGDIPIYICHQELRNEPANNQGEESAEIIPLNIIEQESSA
# T1 sequence (O60896 24-148 partner): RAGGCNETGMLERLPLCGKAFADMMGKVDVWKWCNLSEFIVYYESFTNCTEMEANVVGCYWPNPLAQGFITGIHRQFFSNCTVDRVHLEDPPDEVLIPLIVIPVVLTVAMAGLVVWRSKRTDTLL
# Method in brief: (§1)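 EC50 values come from curve fits over at least 7 peptide concentrations, with cAMP read by AlphaScreen competition after 1 h in the dark. Cells were 1321N1 lines carrying human calcitonin receptor, with RAMP3 co-expressed for AMY3, treated 45 min at room temperature in the presence of IBMX.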
# [2] = Chemical stability, alternative analysis in MilliQ water with pH adjusted, 40° C. (RP-HPLC); format: physicochemical; conditions: for % degradation after 8 days at 40° C. pH4: pH adjusted to 4.0, 8 days; for % degradation after 8 days at 40° C. pH7.5: pH adjusted to 7.5, 8 days; for % degradation after 8 days at 40° C. pH9: pH adjusted to 9.0, 8 days
# Procedure: In an alternative analysis, peptides were dissolved in MilliQ water and pH adjusted to 4.0, 7.5 or 9.0. Samples were placed in glass vials and incubated at 40° C. The samples were analyzed by RP-HPLC on a C8 column with gradient elution using a trifluoroacetic acid/acetonitrile/water eluent system. The area-percentage (area-%) of the main peak was determined by UV spectroscopy at 220 nm at each sampling time point.
# The % degradation was calculated by subtracting the […].
# The results of the chemical stability assessment after 8 days of incubation time are summarized as % degradation in Table 3 (below).
# [3] = biological target: T2, recombinant human calcitonin receptor (hCT-R) (Homo sapiens, UniProt P30988); assay: hCT-R cAMP assay (AlphaScreen) in 1321N1 cells; format: cell-based; conditions: cAMP formation, 45 min stimulation
# T2 construct: host or cells: human astrocytoma cell line 1321N1
# T2 sequence (P30988 25-474): T1 sequence (P30988 25-474)
# Method in brief: as §1
EC50 [1],% degradation after 8 days at 40° C. pH4 [2],% degradation after 8 days at 40° C. pH7.5 [2],% degradation after 8 days at 40° C. pH9 [2],EC50 [3],SMILES
0.006 nM,3.9%,6.2%,4.2%,0.028 nM,"CC[C@H](C)[C@@H](C(=O)N[C@@H](CC(C)C)C(=O)N[C@@H](CO)C(=O)N[C@@H](CO)C(=O)N[C@H](C(=O)N[C@@H](CCC(=O)O)C(=O)N[C@H](C(=O)NCC(=O)N[C@@H](CO)C(=O)N[C@@H](CC(N)=O)C(=O)N[C@H](C(=O)N1C[C@H](O)C[C@H]1C(N)=O)[C@@H](C)O)C(C)C)[C@@H](C)O)N(C)C(=O)[C@H](C)NC(=O)CN(C)C(=O)[C@H](Cc1ccccc1)NC(=O)[C@H](CO)NC(=O)[C@H](CO)NC(=O)[C@H](CCCNC(=N)N)NC(=O)[C@H](CCC(N)=O)NC(=O)[C@H](CC(C)C)NC(=O)[C@H](Cc1ccccc1)NC(=O)[C@H](Cc1c[nH]cn1)NC(=O)[C@H](C)NC(=O)[C@H](CC(C)C)NC(=O)[C@H](CCCNC(=N)N)NC(=O)[C@H](CCC(=O)O)NC(=O)[C@@H](NC(=O)[C@H](C)NC(=O)[C@@H]1CCCCCNC(=O)C[C@H](NC(=O)[C@H](CCCNC(=N)N)NC(=O)CC[C@H](NC(=O)CCCCCCCCCCCCCCCCCCC(=O)O)C(=O)O)C(=O)NCC(=O)N[C@@H]([C@@H](C)O)C(=O)N[C@@H](C)C(=O)N[C@@H]([C@@H](C)O)C(=O)N1)[C@@H](C)O [Compound 19, [19CD]-isoGlu-RD()GTAT-hLys()-ATERLAHFLQRSSF-Gly(Me)-A-Ile(Me)-LSSTEVGSNT-Hyp-NH2] ({C20 diacid-γGlu}-RDGTAT[hLys]ATERLAHFLQRSSF[Sar]A[NMeI]LSSTEVGSNT[Hyp]-NH2; lactam 2-7)"
0.02 nM,1.8%,2.3%,2.5%,0.107 nM,"CC[C@H](C)[C@@H](C(=O)N[C@@H](CC(C)C)C(=O)N[C@@H](CO)C(=O)N[C@@H](CO)C(=O)N[C@H](C(=O)N[C@@H](CCC(=O)O)C(=O)N[C@H](C(=O)NCC(=O)N[C@@H](CO)C(=O)N[C@@H](CC(N)=O)C(=O)N[C@H](C(=O)N1C[C@H](O)C[C@H]1C(N)=O)[C@@H](C)O)C(C)C)[C@@H](C)O)N(C)C(=O)[C@H](C)NC(=O)CN(C)C(=O)[C@H](Cc1ccccc1)NC(=O)[C@H](CO)NC(=O)[C@H](CO)NC(=O)[C@H](CCCNC(=N)N)NC(=O)[C@H](CCC(N)=O)NC(=O)[C@H](CC(C)C)NC(=O)[C@H](Cc1ccccc1)NC(=O)[C@H](Cc1c[nH]cn1)NC(=O)[C@H](C)NC(=O)[C@H](CC(C)C)NC(=O)[C@H](CCCNC(=N)N)NC(=O)[C@H](CCC(=O)O)NC(=O)[C@@H](NC(=O)[C@H](C)NC(=O)[C@@H]1CCCC(=O)NC[C@H](NC(=O)[C@H](CCCNC(=N)N)NC(=O)CC[C@H](NC(=O)CCCCCCCCCCCCCCCCCCC(=O)O)C(=O)O)C(=O)NCC(=O)N[C@@H]([C@@H](C)O)C(=O)N[C@@H](C)C(=O)N[C@@H]([C@@H](C)O)C(=O)N1)[C@@H](C)O [Compound 48, [19CD]-isoGlu-R-Dap()-GTAT-Aad()-ATERLAHFLQRSSF-Gly(Me)-A-Ile(Me)-LSSTEVGSNT-Hyp-NH2] ({C20 diacid-γGlu}-R[Dap]GTAT[Aad]ATERLAHFLQRSSF[Sar]A[NMeI]LSSTEVGSNT[Hyp]-NH2; lactam 2-7)"
0.442 nM,1.7%,2.1%,3.0%,1.04 nM,"CC[C@H](C)[C@@H](C(=O)N[C@@H](CC(C)C)C(=O)N[C@@H](CO)C(=O)N[C@@H](CO)C(=O)N[C@H](C(=O)N[C@@H](CCC(=O)O)C(=O)N[C@H](C(=O)NCC(=O)N[C@@H](CO)C(=O)N[C@@H](CC(N)=O)C(=O)N[C@H](C(=O)N1C[C@H](O)C[C@H]1C(N)=O)[C@@H](C)O)C(C)C)[C@@H](C)O)N(C)C(=O)[C@H](C)NC(=O)CN(C)C(=O)[C@H](Cc1ccccc1)NC(=O)[C@H](CO)NC(=O)[C@H](CO)NC(=O)[C@H](CCCNC(=N)N)NC(=O)[C@H](CCC(N)=O)NC(=O)[C@H](CC(C)C)NC(=O)[C@H](Cc1ccccc1)NC(=O)[C@H](Cc1c[nH]cn1)NC(=O)[C@H](C)NC(=O)[C@H](CC(C)C)NC(=O)[C@H](CCCNC(=N)N)NC(=O)[C@H](CCC(=O)O)NC(=O)[C@@H](NC(=O)[C@H](C)NC(=O)[C@@H]1CCC(=O)NCC[C@H](NC(=O)[C@H](CCCNC(=N)N)NC(=O)CC[C@H](NC(=O)CCCCCCCCCCCCCCCCCCC(=O)O)C(=O)O)C(=O)NCC(=O)N[C@@H]([C@@H](C)O)C(=O)N[C@@H](C)C(=O)N[C@@H]([C@@H](C)O)C(=O)N1)[C@@H](C)O [Compound 49, [19CD]-isoGlu-R-Dab()-GTATE()ATERLAHFLQRSSF-Gly(Me)-A-Ile(Me)-LSSTEVGSNT-Hyp-NH2] ({C20 diacid-γGlu}-R[Dab]GTATEATERLAHFLQRSSF[Sar]A[NMeI]LSSTEVGSNT[Hyp]-NH2; lactam 2-7)"
0.306 nM,3.1%,4.6%,4.6%,0.861 nM,"CC[C@H](C)[C@@H](C(=O)N[C@@H](CC(C)C)C(=O)N[C@@H](CO)C(=O)N[C@@H](CO)C(=O)N[C@H](C(=O)N[C@@H](CCC(=O)O)C(=O)N[C@H](C(=O)NCC(=O)N[C@@H](CO)C(=O)N[C@@H](CC(N)=O)C(=O)N[C@H](C(=O)N1C[C@H](O)C[C@H]1C(N)=O)[C@@H](C)O)C(C)C)[C@@H](C)O)N(C)C(=O)[C@H](C)NC(=O)CN(C)C(=O)[C@H](Cc1ccccc1)NC(=O)[C@H](CO)NC(=O)[C@H](CO)NC(=O)[C@H](CCCNC(=N)N)NC(=O)[C@H](CCC(N)=O)NC(=O)[C@H](CC(C)C)NC(=O)[C@H](Cc1ccccc1)NC(=O)[C@H](Cc1c[nH]cn1)NC(=O)[C@H](C)NC(=O)[C@H](CC(C)C)NC(=O)[C@H](CCCNC(=N)N)NC(=O)[C@H](CCC(=O)O)NC(=O)[C@@H](NC(=O)[C@H](C)NC(=O)[C@@H]1CCNC(=O)CC[C@H](NC(=O)[C@H](CCCNC(=N)N)NC(=O)CC[C@H](NC(=O)CCCCCCCCCCCCCCCCCCC(=O)O)C(=O)O)C(=O)NCC(=O)N[C@@H]([C@@H](C)O)C(=O)N[C@@H](C)C(=O)N[C@@H]([C@@H](C)O)C(=O)N1)[C@@H](C)O [Compound 51, [19CD]-isoGlu-RE()GTAT-Dab()-ATERLAHFLQRSSF-Gly(Me)-A-Ile(Me)-LSSTEVGSNT-Hyp-NH2] ({C20 diacid-γGlu}-REGTAT[Dab]ATERLAHFLQRSSF[Sar]A[NMeI]LSSTEVGSNT[Hyp]-NH2; lactam 2-7)"
